In data set [1] the target is T1, HDAC 1 (Homo sapiens, UniProt Q13547). Put plainly: HDAC 1 fluorogenic peptide substrate assay without preincubation. The following applies: no preincubation; read-out: HDAC 1 inhibitory activity (IC50) No preincubation. Format: biochemical. As to the method:
(§1) HDAC inhibitory activity of the compound of Example 1 was measured by two types of assays in which HDAC 1 and 6 were used as a target molecule. The first assay was carried out without preincubation after addition of the enzyme. The test compound was suspended in and titrated in DMSO. It was then spotted into a 384-well test plate. The enzyme, HDAC 1 or 6, was diluted in assay buffer containing 25 mM Tris-HCl (pH 8.0), 137 mM NaCl, 2.7 mM KCl, and 0.01% Tween-20 and added to the pre-spotted compound. The peptide substrate containing a fluorophore/quencher pair was diluted in the same assay buffer and added to the compound/enzyme mix initiating the reaction. The reaction incubated at room temperature for about 45 minutes. A concentrated developer solution was diluted in the assay buffer, and added to the reaction. The reaction was incubated at room temperature for about 15 minutes and relative fluorescence was read on an instrument reader.

Data set [2] deals with T1, HDAC 1. Briefly: HDAC 1 fluorogenic peptide substrate assay with 3-hour enzyme/compound preincubation. Format: biochemical. The following applies: 3-hour preincubation of enzyme and compound; read-out: HDAC 1 inhibitory activity (IC50) 3-hour preincubation. On the procedure:
(§2) The second assay is similar to the first assay described above, except that preincubation is carried out for about 3 hours after the enzyme is introduced. The test compound was suspended in, and titrated in DMSO. It was then spotted into a 384-well test plate. The enzyme, HDAC 1 or 6, was diluted in the same assay buffer as used in the previous assay and added to the pre-spotted compound. The enzyme/compound mix was incubated at room temperature for about 3 hours. The peptide substrate containing a fluorophore/quencher pair was diluted in the assay buffer and added to the compound/enzyme mix initiating the reaction. The reaction incubated at room temperature for 45 minutes. A concentrated developer solution was diluted in the assay buffer, and added to the reaction. The reaction was incubated at room temperature for about 15 minutes and relative fluorescence was read on an instrument reader.

Data set [3] has as its target T2, HDAC 6 (Homo sapiens, UniProt Q9UBN7).
T2 sequence (Q9UBN7 1-1215): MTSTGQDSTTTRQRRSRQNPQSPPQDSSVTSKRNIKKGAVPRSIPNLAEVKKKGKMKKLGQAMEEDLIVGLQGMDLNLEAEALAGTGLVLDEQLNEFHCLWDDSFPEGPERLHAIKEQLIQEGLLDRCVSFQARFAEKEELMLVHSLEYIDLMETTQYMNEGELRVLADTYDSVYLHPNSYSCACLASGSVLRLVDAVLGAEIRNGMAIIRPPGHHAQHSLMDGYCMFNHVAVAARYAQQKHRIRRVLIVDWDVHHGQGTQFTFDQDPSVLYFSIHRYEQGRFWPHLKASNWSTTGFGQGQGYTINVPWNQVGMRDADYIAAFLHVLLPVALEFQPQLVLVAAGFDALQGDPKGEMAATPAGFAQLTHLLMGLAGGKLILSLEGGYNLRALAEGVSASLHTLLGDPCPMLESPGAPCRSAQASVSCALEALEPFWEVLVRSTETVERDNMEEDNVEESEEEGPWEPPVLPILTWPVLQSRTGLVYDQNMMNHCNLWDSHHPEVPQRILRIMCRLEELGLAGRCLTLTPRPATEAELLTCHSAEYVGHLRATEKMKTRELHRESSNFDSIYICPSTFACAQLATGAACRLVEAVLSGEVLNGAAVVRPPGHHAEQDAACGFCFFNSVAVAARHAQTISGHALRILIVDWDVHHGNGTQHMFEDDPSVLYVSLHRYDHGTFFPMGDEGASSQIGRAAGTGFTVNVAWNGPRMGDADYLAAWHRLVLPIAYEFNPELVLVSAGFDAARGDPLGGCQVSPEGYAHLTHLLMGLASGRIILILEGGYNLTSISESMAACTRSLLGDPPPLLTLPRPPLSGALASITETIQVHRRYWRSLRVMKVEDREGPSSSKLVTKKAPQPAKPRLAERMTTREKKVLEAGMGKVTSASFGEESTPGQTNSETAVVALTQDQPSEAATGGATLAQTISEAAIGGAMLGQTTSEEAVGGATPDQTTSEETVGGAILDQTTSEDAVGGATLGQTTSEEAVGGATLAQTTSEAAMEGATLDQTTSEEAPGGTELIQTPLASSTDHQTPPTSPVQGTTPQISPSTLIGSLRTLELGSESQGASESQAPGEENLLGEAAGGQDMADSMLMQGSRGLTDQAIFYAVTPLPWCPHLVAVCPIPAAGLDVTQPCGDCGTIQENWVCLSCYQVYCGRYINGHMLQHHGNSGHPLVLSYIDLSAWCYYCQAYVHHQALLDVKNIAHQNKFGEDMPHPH
Briefly: HDAC 6 fluorogenic peptide substrate assay without preincubation. It counts as biochemical. The following applies: no preincubation; read-out: HDAC 6 inhibitory activity (IC50) No preincubation. On the procedure:
as §1

In data set [4] the target is T2, HDAC 6. Put plainly: HDAC 6 fluorogenic peptide substrate assay with 3-hour enzyme/compound preincubation. It counts as biochemical. The note with it: 3-hour preincubation of enzyme and compound; read-out: HDAC 6 inhibitory activity (IC50) 3-hour preincubation. On the procedure:
as §2

pIC50: −log10 of the molar value. Bounds are passed on as bounds.

T1 sequence (Q13547 whole entry, species assumed): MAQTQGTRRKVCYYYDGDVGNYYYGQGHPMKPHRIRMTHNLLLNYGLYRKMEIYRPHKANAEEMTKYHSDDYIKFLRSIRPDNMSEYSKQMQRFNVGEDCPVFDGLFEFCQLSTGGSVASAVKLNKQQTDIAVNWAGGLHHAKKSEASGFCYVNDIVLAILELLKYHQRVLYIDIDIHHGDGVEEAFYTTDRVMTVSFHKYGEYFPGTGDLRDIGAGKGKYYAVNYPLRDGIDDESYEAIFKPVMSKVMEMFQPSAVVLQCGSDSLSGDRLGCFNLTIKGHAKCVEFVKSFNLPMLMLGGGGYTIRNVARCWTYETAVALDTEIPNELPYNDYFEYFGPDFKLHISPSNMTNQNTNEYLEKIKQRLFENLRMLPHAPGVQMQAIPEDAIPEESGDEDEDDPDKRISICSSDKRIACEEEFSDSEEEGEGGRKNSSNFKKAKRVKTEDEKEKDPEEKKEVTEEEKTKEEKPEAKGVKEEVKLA

The term pIC50 denotes −log10 of the IC50, conventionally taken in molar units. What is called melting point is the temperature of the solid-liquid transition. The molecule `Cc1nc2ccccn2c1-c1csc(Nc2ccc(C(=O)NO)cc2)n1` [Example 3, N-Hydroxy-4-[4-(2-methyl-imidazo[1,2-a]pyridin-3-yl)-thiazol-2-ylamino]-benzamide] returned a melting point of 188.3 °C. In addition, at HDAC 1 [1], the pIC50 was 7.10. For the same molecule, at HDAC 1 [2], the negative logarithm of the IC50 (pIC50) is 7.27. For the same molecule, the pIC50 on HDAC 6 [3] was 7.33. Moreover, the negative-log IC50 (pIC50) on HDAC 6 [4] is 7.25.

Turning to `O=C(NO)c1ccc(Nc2nc(-c3cnc4ccccn34)cs2)cc1` [Example 13, N-Hydroxy-4-(4-imidazo[1,2-a]pyridin-3-yl-thiazol-2-ylamino)-benzamide], the melting point was determined as 209.9 °C. Besides, at HDAC 1 [1], the pIC50 was 7.07. Further, the pIC50 on HDAC 1 [2] was 7.54. The pIC50 at HDAC 6 [3] was 7.73. In addition, on HDAC 6 [4], the pIC50 is 7.77.

`Cc1nc2ccccn2c1-c1csc(Nc2cccc(C(=O)Nc3ccccc3N)c2)n1` [Example 2, N-(2-Amino-phenyl)-3-[4-(2-methyl-imidazo[1,2-a]pyridin-3-yl)-thiazol-2-ylamino]-benzamide] had a melting point of 194.9 to 197 °C. For the same molecule, at HDAC 1 [1], the pIC50 is 5.49. Besides, the pIC50 at HDAC 1 [2] is 4.38. Further, the pIC50 on HDAC 6 [3] is less than 4.30. Moreover, on HDAC 6 [4], the pIC50 was less than 4.30.

Molecule `O=C(NO)c1cccc(Nc2nc(-c3cnc4ccccn34)cs2)c1` [Example 14, N-Hydroxy-3-(4-imidazo[1,2-a]pyridin-3-yl-thiazol-2-ylamino)-benzamide] gave a melting point of 184.1 °C. Moreover, at HDAC 1 [1], the pIC50 was 5.27. Moreover, on HDAC 1 [2], the negative logarithm of the IC50 (pIC50) is 6.94. In addition, the negative logarithm of the IC50 (pIC50) on HDAC 6 [3] is 6.74.

Turning to `Cc1nc2ccccn2c1-c1csc(Nc2cccc(C(=O)NO)c2)n1` [Example 1, N-Hydroxy-3-[4-(2-methyl-imidazo[1,2-a]pyridin-3-yl)-thiazol-2-ylamino] -benzamide], the melting point was 170.4 °C. Besides, the pIC50 on HDAC 1 [1] was 5.97. Besides, the pIC50 on HDAC 1 [2] was 7.03. In addition, the pIC50 on HDAC 6 [3] is 6.50. For the same molecule, the pIC50 on HDAC 6 [4] was 6.31.

In the case of `Nc1ccccc1NC(=O)c1ccc(Nc2nc(-c3cnc4ccccn34)cs2)cc1` [Example 15, N-(2-Amino-phenyl)-4-(4-imidazo[1,2-a]pyridin-3-yl-thiazol-2-ylamino)-benzamide], the melting point is 229.4 °C. For the same molecule, the pIC50 at HDAC 1 [2] was 7.43. In addition, the pIC50 at HDAC 6 [4] was less than 5.00.

In the case of `Cc1nc2ccccn2c1-c1csc(Nc2ccc(C(=O)Nc3ccccc3N)cc2)n1` [Example 4, N-(2-Amino-phenyl)-4-[4-(2-methyl-imidazo[1,2-a]pyridin-3-yl)-thiazol-2-ylamino]-benzamide], the melting point lay in the range of 161.1 to 165.4 °C. Besides, the negative logarithm of the IC50 (pIC50) at HDAC 1 [1] was 6.50. Also, the pIC50 on HDAC 1 [2] is 7.10. The pIC50 on HDAC 6 [3] is less than 4.30. Moreover, the pIC50 on HDAC 6 [4] was less than 4.30.

Values taken from patent US20090005374A1, “IMIDAZOPYRIDINYL THIAZOLYL HISTONE DEACETYLASE INHIBITORS” (priority 2007, published 2009).
